Broadly, the IC50 is the point on the concentration scale where inhibition reaches its midpoint.

8 compounds from patent US8163746B2, “Azolecarboxamide derivative” (Astellas Pharma Inc., priority 2006, dated 2012) can be followed below.

The structures appear in SMILES notation.

Experiment [1] addresses T1, Human nerve growth factor receptor (Homo sapiens, UniProt P04629).
T1 construct: expressed in transfected cells
Description: Receptor inhibitory activity using cells expressing a nerve growth factor receptor (NGF-dependent intracellular Ca increase, FLIPR). As to conditions: HEK293 cells stably expressing Human nerve growth factor receptor; NGF about 100 to 150 ng/ml; Ca concentration change. The experiment is classed as cell-based. How it is done:
1. Experiment to Measure a Receptor Inhibitory Activity Using Cells Expressing a Nerve Growth Factor Receptor
The nerve growth factor receptor inhibitory activity was measured by using the increase in a ligand-dependent calcium concentration in cells as an index. HEK293 cells (American Type Culture Collection) that stably expressed Human nerve growth factor receptor were dispensed onto a 96-well poly-D-lysine-coated plate (Product Name: Biocoat, PDL96W black/clear, by Nippon Becton Dickinson) to a 2×10^4 cells/well at the day before the experiment, and incubated overnight at 37° C. under 5% carbon dioxide (CO2) in a culture medium containing 10% fetal bovine serum (FBS) (Product Name: DMEM, Invitrogen Corporation). The culture medium was replaced by a washing solution: a Hank's balanced salt solution)(HBSS), containing a 1.5 μM loading buffer (fluorescent indicator (Product Name: Fluo-4-AM, […].)), 20 mM 2-[4-(2-hydroxyethyl)-1-piperazinyl]ethanesulfonic acid (HEPES)-sodium hydroxide (NaOH), 2.5 mM Probenecid, 0.1% bovine serum albumin (BSA), and left to stand at room temperature for 3 hours, and the cells were washed using a plate washer (Product Name: ELx405, BIO-TEK instrument Corporation) in which a washing solution had been set up. The compound that had been preliminarily dissolved and diluted in a washing solution was added thereto, and set up in a system for measuring a calcium (Ca) concentration in a cell (Product Name: FLIPR, Molecular Devices Corporation). After 5 minutes, a nerve growth factor (NGF, mouse derived 2.5S, Alomone) corresponding on 80% stimulation of a maximum response was added (to a final concentration of about 100 to 150 ng/ml) to measure the change in Ca concentrations in cells. A difference between a maximum value and a minimum value in Ca concentrations in cells was determined, and kept as measurement data. With a response upon addition of NGF being set at 0%, and a response upon addition of a buffer being set at 100%, the concentration causing 50% inhibition was determined as an IC50 value. In the table, Ex represents Compound No. of Examples as described later. From the results of this test, it was confirmed that the compound of the present invention has a nerve growth factor receptor inhibitory activity.

The target in experiment [2] is T2, trkA receptor (Rattus norvegicus, UniProt P35739).
T2 construct: from tissue; host or cells: Wistar female rat (SLC), skin of the back, in vivo
T2 sequence (P35739 33-799): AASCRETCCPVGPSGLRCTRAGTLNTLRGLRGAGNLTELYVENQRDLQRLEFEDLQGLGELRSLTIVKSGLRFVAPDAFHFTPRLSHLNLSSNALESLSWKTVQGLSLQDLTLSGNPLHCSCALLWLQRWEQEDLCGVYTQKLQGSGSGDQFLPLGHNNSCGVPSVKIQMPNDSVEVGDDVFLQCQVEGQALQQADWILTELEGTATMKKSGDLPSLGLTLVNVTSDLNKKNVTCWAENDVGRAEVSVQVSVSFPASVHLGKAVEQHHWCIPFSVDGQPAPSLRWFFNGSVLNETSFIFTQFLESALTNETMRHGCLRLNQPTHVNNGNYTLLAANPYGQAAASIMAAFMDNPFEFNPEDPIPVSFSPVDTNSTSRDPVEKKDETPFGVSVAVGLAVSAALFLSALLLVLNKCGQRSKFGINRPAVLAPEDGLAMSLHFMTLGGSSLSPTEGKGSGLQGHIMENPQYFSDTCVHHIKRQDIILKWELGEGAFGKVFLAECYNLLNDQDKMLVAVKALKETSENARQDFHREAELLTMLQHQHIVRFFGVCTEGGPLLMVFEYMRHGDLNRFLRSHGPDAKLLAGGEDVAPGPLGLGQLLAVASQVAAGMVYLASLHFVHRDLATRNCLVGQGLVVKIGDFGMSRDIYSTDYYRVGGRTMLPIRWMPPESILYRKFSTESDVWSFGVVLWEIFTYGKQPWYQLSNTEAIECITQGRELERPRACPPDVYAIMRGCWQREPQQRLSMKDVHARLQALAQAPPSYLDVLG
Description: Inhibitory activity on enhanced vascular permeability caused by NGF in rat (Evans blue). The settings on record: Wistar female rat, 10 mg/kg oral, NGF intracutaneous 60 min after administration, vehicle group set at 100%. The experiment is classed as in vivo. The procedure: 2. Evaluation of the Inhibitory Activity of the Compound on Enhanced Vascular Permeability Caused by NGF in Rat
The in vivo trkA receptor inhibitory activity of the compound was examined. A Wistar female rat (SLC) were forced to be orally administered with the compound (0.5% methylcellulose solution) 10 mg/3 ml/kg or a vehicle (0.5% methylcellulose solution) 3 ml/kg. Under ether anesthesia performed at 60 min after administration, physiological saline or 1 ug/ml NGF (NGF, mouse derived 2.5S, Alomone) was intracutaneously administered to the back at 50 ul/site, and then immediately a 1% Evans blue solution (dissolved in physiological saline) was administered through caudal vein at 3 ml/kg. At a time point of 10 min after the administration, the skin on the back was taken, and shaken in formamide for 16 hours. After shaking, an absorption of Evans blue extracted with formamide was measured by an absorption meter (wavelength: 620 nm), and the concentration was determined by a calibration curve method. A value obtained by subtracting the concentration of Evans blue at a site administered with physiological saline from the concentration of Evans blue at a site administered with NGF has a function dependent on NGF, and an inhibitory rate of the compound group was determined with a group administered with vehicle being set at 100%. In this test, it was confirmed that the compound of the present invention has an excellent inhibitory activity on enhanced vascular permeability caused by NGF in rat.

In experiment [3] the test system is CPA-induced urinary frequency in rat. Description: Effects on cyclophosphamide (CPA)-induced urinary frequency in rat. The experiment is classed as in vivo. The settings on record: Wistar female rat, 2 days after CPA, value before administration = 100%. How it is done:
3. Effects of the Compound on the Cyclophosphamide (CPA)-Induced Urinary Frequency in Rat
CPA (150 mg/5 ml/kg) was intraperitoneally administered to a Wistar female rat (Charles river laboratories), and after two days, the experiment was carried out. It was forced to be orally administered with distilled water (30 ml/kg), and then placed in a metabolic cage, and the voided urine weight and the urination frequency were continuously measured for 1 hour. The compound (0.5% methylcellulose solution) 3 or 10 mg/5 ml/kg, or a vehicle (0.5% methylcellulose solution) 5 ml/kg was orally administered, and after 5 to 30 min, the urinary functions were measured after loading water in the same manner as described above. A total voided urine weight was divided by the total urination frequency to determine an effective bladder capacity. With the value before administration of the compound being set at 100%, a rate of change in the effective bladder capacity caused by administration of the compound was determined.
In this test, at 2 days after CPA treatment, the effective bladder capacity was decreased (about 0.5 ml), indicating urinary frequency condition.

Experiment [4] deals with acetic acid-induced painful behaviors in rat. Briefly: Effects on acetic acid-induced painful behaviors (writhing) in rat. The settings on record: Wistar male rat; 10 mg/kg oral 5 min before 1% acetic acid i.p.; writhing frequency 10-20 min; vehicle group = 100%. Format: in vivo. How it is done: 4. Effects of the Compound on Acetic Acid-Induced Painful Behaviors in Rat
1% Acetic acid (99% distilled water) was intraperitoneally administered to a Wistar male rat (Charles river laboratories), and the frequency of pain behavior (writhing) between 10 min and 20 min after administration was measured. The compound (10 mg/5 ml/kg) or a vehicle (0.5% methylcellulose solution) was orally administered 5 mins before the administration of 1% acetic acid. With the frequency of the group administered with the vehicle being set at 100%, the inhibition rate of the writhing behavior frequency by the compound administration was determined.

Where [5] appears, read: dose 10 mg/kg oral, evaluation 30-90 min after administration.
Where [6] appears, read: dose 3 mg/kg oral, evaluation 5-65 min after administration.

T1 sequence (P04629 33-796): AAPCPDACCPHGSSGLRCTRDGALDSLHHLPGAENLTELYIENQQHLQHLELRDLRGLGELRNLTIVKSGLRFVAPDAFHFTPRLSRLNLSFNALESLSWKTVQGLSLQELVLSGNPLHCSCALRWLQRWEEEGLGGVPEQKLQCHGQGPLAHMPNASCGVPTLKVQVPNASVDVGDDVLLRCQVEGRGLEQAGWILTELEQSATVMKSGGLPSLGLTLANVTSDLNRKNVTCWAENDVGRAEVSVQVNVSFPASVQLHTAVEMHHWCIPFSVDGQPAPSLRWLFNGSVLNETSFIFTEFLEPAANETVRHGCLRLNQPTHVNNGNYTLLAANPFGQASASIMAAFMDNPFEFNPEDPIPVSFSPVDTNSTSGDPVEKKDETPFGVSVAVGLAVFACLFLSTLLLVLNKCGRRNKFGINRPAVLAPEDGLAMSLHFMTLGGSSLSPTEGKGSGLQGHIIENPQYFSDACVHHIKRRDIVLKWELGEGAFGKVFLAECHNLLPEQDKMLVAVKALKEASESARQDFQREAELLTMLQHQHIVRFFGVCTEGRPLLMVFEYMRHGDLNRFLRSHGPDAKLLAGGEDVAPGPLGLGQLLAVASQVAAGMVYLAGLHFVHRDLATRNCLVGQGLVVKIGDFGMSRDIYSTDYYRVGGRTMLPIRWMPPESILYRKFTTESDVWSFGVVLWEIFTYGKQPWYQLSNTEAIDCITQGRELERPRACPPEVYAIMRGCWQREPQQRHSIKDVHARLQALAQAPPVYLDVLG

For `NC(=O)C1CCN(c2ccccc2NC(=O)c2csc(-c3ccoc3)n2)CC1` [Example 662, 1-[2-({[2-(3-furyl)-1,3-thiazol-4-yl]carbonyl}amino)phenyl]-4-piperidine carboxamide], the half-maximal inhibitory concentration (IC50) in experiment [1] was found to be 2.4 nM.
`COCCN(C)c1nc(C(=O)Nc2ccccc2N2CCN(CC(N)=O)CC2)cs1.Cl` [Example 356, N-{2-[4-(2-amino-2-oxoethyl)-piperazin-1-yl]phenyl}-2-[(2-methoxyethyl)(methyl)amino]-1,3-thiazole-4-carboxamide hydrochloride] gave an IC50 in experiment [1] of 8.8 nM. Besides, in experiment [2], the Inhibition rate is 97%. In addition, the “Change rate of effective bladder capacity” value (“Change rate” for short) in experiment [3] (setting [5]) was 180%.
The compound `Cl.NC(=O)C1CCN(c2ncccc2NC(=O)c2coc(N3CCOCC3)n2)CC1` [Example 501, 1-(3-{[(2-morpholin-4-yl-1,3-oxazol-4-yl)carbonyl]amino}pyridin-2-yl)piperidine-4-carboxamide hydrochloride] displayed a half-inhibitory concentration (IC50) in experiment [1] of 12 nM. In addition, the Inhibition rate in experiment [2] stood at 85%; in experiment [4], 55%. Besides, in experiment [3] (setting [5]), the “Change rate” value turned out to be 157%.
The matching figures for `COCCN(C)c1nc(C(=O)Nc2cccnc2N2CCC(C(N)=O)CC2)cs1` [Example 380]: 9.5 nM, 88%, 44% and 152%.
As for `COCCN(C)c1nc(C(=O)Nc2cccnc2N2CCN(CC(N)=O)CC2)cs1` [Example 382], in experiment [1], the half-inhibitory concentration (IC50) stood at 11 nM. In addition, the Inhibition rate in experiment [2] worked out at 92%; in experiment [4] it was 38%. Besides, the “Change rate” value in experiment [3] (setting [6]) turned out to be 134%.
`NC(=O)CN1CCN(c2ccccc2NC(=O)c2csc(N3CCOCC3)n2)CC1` [Example 151] came in with an IC50 in experiment [1] of 11 nM. Moreover, the Inhibition rate in experiment [2] is listed as 93%; in experiment [4] it was 53%. In addition, the “Change rate” value in experiment [3] (setting [5]) amounted to 147%.
`NC(=O)CN1CCN(c2c(F)cccc2NC(=O)c2csc(N3CCC(O)CC3)n2)CC1` [Example 311] registered an IC50 in experiment [1] of 2.6 nM. The Inhibition rate in experiment [2] came to 90%.
In experiment [1], `NC(=O)CN1CCN(c2ccc(F)cc2NC(=O)c2coc(C3CCOCC3)n2)CC1` [Example 942] gave an IC50 of 4.6 nM. For the same compound, the Inhibition rate in experiment [2] is listed as 95%. Moreover, the “Change rate” value in experiment [3] (setting [6]) is on record as 153%.
